{"source": "patent US20250082651A1", "about": "“GANAXOLONE FOR USE IN TREATING GENETIC EPILEPTIC DISORDERS” (Marinus Pharmaceuticals, Inc., priority 2017, published 2025)", "key": {"[1]": {"experiment": "Solubility of ganaxolone in solvents", "format": "physicochemical", "description": "Ganaxolone is insoluble in water. Its solubilities in 95% alcohol, propylene glycol and polyethylene glycol are 13 mg/mL, 3.5 mg/mL and 3.1 mg/mL, respectively.\nThe pregnenolone neurosteroid (e.g., ganaxolone) formulations suitable for use in the present invention may also be administered parenterally. In such embodiments, the formulations are suitable for intramuscular, subcutaneous, or intravenous injection may comprise physiologically acceptable sterile aqueous or non-aqueous solutions, dispersions, suspensions or emulsions, and sterile powders for reconstitution into sterile injectable solutions or dispersions. Examples of suitable aqueous and non-aqueous carriers, diluents, solvents, or vehicles including water, ethanol, polyols (propylene glycol, polyethylene-glycol, glycerol, cremophor and the like), suitable mixtures thereof, vegetable oils (such as olive oil) and injectable organic esters such as ethyl oleate. Additionally, Ganaxolone can be dissolved at concentrations of >1 mg/ml using water soluble beta cyclodextrins (e.g. beta-sulfobutyl-cyclodextrin and 2-hydroxypropylbetacyclodextrin). A particularly suitable cyclodextrin is a substituted-β-cyclodextrin is CAPTISOL® (cyckodextrin). […]"}, "[2]": {"tested_on": "children with PCDH19 epilepsy", "experiment": "Phase 2 open-label trial, PCDH19 cohort, seizure efficacy", "format": "in vivo, human", "excerpt": "Example 3 concerns a Phase 2 Multicenter, Open-Label Proof-of-Concept Trial of ganaxolone (GNX) in cohorts of children having genetic epilepsies (PCDH19, CDKL5 LGS, and CSWS) (ClinicalTrials.gov Identifier: NCT02358538). There were 11 female children with PCDH19 epilepsy between 5-16 years old with a confirmed genetic mutation. There were 6 female and 1 male children with confirmed genetic mutations in the CDKL5 cohort. There were 10 children in the Lennox Gastaut Syndrome cohort. Two children with CSWS were enrolled into the study. The study was conducted with 12 weeks baseline, and up to 26 weeks of treatment followed by a 52 week open label treatment. The primary efficacy was the percentage change in seizure frequency per 28 days relative to baseline calculated using daily seizure diary. [Time Frame: 26 weeks]. Secondary Outcome Measures were: Clinician Global Impression of Change score as assessed by questionnaire. [Time Frame: 26 Weeks]; Patient Global Impression of Change score as assessed by questionnaire. [Time Frame: 26 Weeks]; Evaluation of safety and tolerability of open-label ganaxolone as adjunctive therapy for uncontrolled seizures in children with rare genetic epilepsies, based on adverse event log and other clinical safety assessments. [Time Frame: 26 weeks]; Responder rates [Time Frame: 26 weeks]; and Seizure free days [Time Frame: 26 weeks].\nFollowing screening and baseline evaluations, consenting patients enrolled into a 26-week study during which investigators were allowed to flexibly dose ganaxolone up to a dose of 1,800 mg/day for patients whose body weight was >30 kg, or up to 63 mg/kg/day for patients whose body-weight was <30 kg. The primary efficacy measure is % change from baseline in the 28-day seizure frequency count. Safety and tolerability were within the secondary objectives of the study.\nIn this study, oral ganaxolone suspension or capsules were administered up to a total of 63 mg/kg/day (maximum 1800 mg/day) over 2-4 weeks. About six-eight titration steps are used, depending on the size of the patient. Children larger than 30 kg may take the ganaxolone capsules. The ganaxolone oral suspension was administered through an oral dosing syringe three times daily. The ganaxolone capsules were administered twice daily. The patients experience better absorption of the ganaxolone with meals (milk).\nIn total, 11 female subjects between 4 and 15 years of age with a confirmed PCDH19 genetic mutation and uncontrolled seizures despite antiepileptic pharmacotherapy were enrolled. Ganaxolone was studied as an adjunctive treatment, administered as either PO liquid suspension or capsules according to the titration schedule in Tables 7 and 8, for 26 weeks after establishing up to 12 weeks of baseline seizure frequency. Primary and secondary endpoints were the same as for the CDKL5 deficiency disorder cohort.\nAfter establishing baseline seizure frequency, qualifying subjects entered the study and were treated with open-label ganaxolone oral suspension or ganaxolone capsules at doses up to a maximum of 1800 mg/day for up to 6 months. Maximum study participation was 94 weeks: a screening period up to 12 weeks to establish baseline seizure frequency, up to 26 weeks of treatment, a 52 week extension for subjects who benefited from ganaxolone treatment, and up to 4 weeks of down titration period. […] Refractive cases of LGS or CSWS that had prior response to steroid or ACTH could also have been enrolled.\nGanaxolone oral suspension was administered through an oral dosing syringe by parent or legal guardian 3 times daily (TID), following the morning, noon, and evening meal or snack. Each dose was separated by a minimum of 4 hours and a maximum of 8 hours. A missed dose of ganaxolone could have been taken up to 4 hours before the next scheduled dose; otherwise, the missed dose was not to be given. […]"}, "[3]": {"conditions": "individual PCDH19 subjects 1-11"}, "[4]": {"conditions": "preliminary data, 11 PCDH19 patients"}}, "note": "Where “and” joins values, the source holds several entries; their conditions need not be identical. Equal entries are not always repeated."}
{"compound": "CC(=O)[C@H]1CC[C@H]2[C@@H]3CC[C@H]4C[C@](C)(O)CC[C@]4(C)[C@H]3CC[C@]12C", "note": "[Ganaxolone, 3α-hydroxy-3β-methyl-5α-pregnan-20-one]", "values": [{"measurement": "Dissolved concentration", "setting": "[1]; using water soluble beta cyclodextrins", "result": "> 1", "unit": "mg/mL"}, {"measurement": "Solubility in water", "setting": "[1]; water", "result": "insoluble"}, {"measurement": "Median change (decrease) in 28-day seizure frequency from baseline", "setting": "[2]; PCDH19, ITT / all-comers n=11, 4 patients LOCF", "result": 26, "unit": "%"}, {"measurement": "Median change (increase) from baseline in seizure-free days", "setting": "[2]; PCDH19, ITT n=11", "result": 14, "unit": "%"}, {"measurement": "Median % change seizure rates, biomarker-negative subjects", "setting": "[2]; PCDH19, n=4, Allo-S>2,500 pg mL^−1, retrospective", "result": 247, "unit": "%"}, {"measurement": "Seizure frequency at 6 months compared to baseline, biomarker-positive group", "setting": "[2]; PCDH19, p=0.02, Wilcoxon", "result": "significantly improved"}, {"measurement": "Seizure frequency at 6 months compared to baseline, biomarker-negative (high Allo-S) group", "setting": "[2]; PCDH19, p=0.25, Wilcoxon", "result": "did not improve"}, {"measurement": "28-day seizure frequency, sum of individual seizures and clusters, post-baseline 26-week open-label period, Mean (SD)", "setting": "[2]; PCDH19 N=11, MITT", "result": 19.85}, {"measurement": "28-day seizure frequency, sum of individual seizures and clusters, post-baseline 26-week open-label period, Median", "setting": "[2]; PCDH19 N=11, MITT", "result": 5.42}, {"measurement": "28-day seizure frequency, sum of individual seizures and clusters, post-baseline through Month 3 (Day 91), Mean (SD)", "setting": "[2]; PCDH19 N=11, MITT", "result": 19.82}, {"measurement": "28-day seizure frequency, sum of individual seizures and clusters, post-baseline through Month 3 (Day 91), Median", "setting": "[2]; PCDH19 N=11, MITT", "result": 7.78}, {"measurement": "Percent change from baseline (at Day 91), 28-day seizure frequency, sum of individual seizures and clusters, Mean (SD)", "setting": "[2]; PCDH19 N=11, MITT", "result": 52.83, "unit": "%"}, {"measurement": "Percent change from baseline (at Day 91), 28-day seizure frequency, sum of individual seizures and clusters, Median", "setting": "[2]; PCDH19 N=11, MITT", "result": "25.98% and −25.98%"}, {"measurement": "Percent change from baseline (at Week 26), 28-day seizure frequency, sum of individual seizures and clusters, Mean (SD)", "setting": "[2]; PCDH19 N=11, MITT", "result": 46.36, "unit": "%"}, {"measurement": "Percent change from baseline (at Week 26), 28-day seizure frequency, sum of individual seizures and clusters, Median", "setting": "[2]; PCDH19 N=11, MITT", "result": "24.59% and −24.59%"}, {"measurement": "% change seizure rate-12 month, Mean", "setting": "[2]; PCDH19 cohort, N=7", "result": 51.34, "unit": "%"}, {"measurement": "% change seizure rate-12 month, Median", "setting": "[2]; PCDH19 cohort, N=7", "result": "−8.57", "unit": "%"}, {"measurement": "Post-baseline 28-day seizure rate-12 month, Mean", "setting": "[2]; PCDH19 cohort, N=7", "result": 24.25}, {"measurement": "Post-baseline 28-day seizure rate-12 month, Median", "setting": "[2]; PCDH19 cohort, N=7", "result": 19.44}, {"measurement": "% change seizure rate-3 month, Mean", "setting": "[2]; PCDH19 cohort, N=11", "result": 105.59, "unit": "%"}, {"measurement": "% change seizure rate-3 month, Median", "setting": "[2]; PCDH19 cohort, N=11", "result": "−7.37", "unit": "%"}, {"measurement": "% change seizure rate-6 month, Mean", "setting": "[2]; PCDH19 cohort, N=11", "result": 103.72, "unit": "%"}, {"measurement": "% change seizure rate-6 month, Median", "setting": "[2]; PCDH19 cohort, N=11", "result": "−25.68", "unit": "%"}, {"measurement": "Post-baseline 28-day seizure rate-3-month, Mean", "setting": "[2]; PCDH19 cohort, N=11", "result": 84.51}, {"measurement": "Post-baseline 28-day seizure rate-3-month, Median", "setting": "[2]; PCDH19 cohort, N=11", "result": 15.81}, {"measurement": "Post-baseline 28-day seizure rate-6 month, Mean", "setting": "[2]; PCDH19 cohort, N=11", "result": 84.41}, {"measurement": "Post-baseline 28-day seizure rate-6 month, Median", "setting": "[2]; PCDH19 cohort, N=11", "result": 15.81}, {"measurement": "Mean percent change in 28-day total seizure frequency from baseline to Week 26", "setting": "[2]; PCDH19 cohort, PP Population", "result": 60.99, "unit": "%"}, {"measurement": "Median percent change in 28-day total seizure frequency from baseline to Week 26", "setting": "[2]; PCDH19 cohort, PP Population", "result": 22.11, "unit": "%"}, {"measurement": "Clinical global impression of improvement: much improved", "setting": "[2]; PCDH19 cohort, end of Week 26", "result": 2, "unit": "subjects"}, {"measurement": "Clinical global impression of improvement: very much improved", "setting": "[2]; PCDH19 cohort, end of Week 26", "result": 2, "unit": "subjects"}, {"measurement": "28-day individual seizure frequency, post-baseline 26-Week open-label period, Mean (SD)", "setting": "[2]; PCDH19 n=11, MITT", "result": 7.28}, {"measurement": "28-day individual seizure frequency, post-baseline 26-Week open-label period, Median", "setting": "[2]; PCDH19 n=11, MITT", "result": 2.26}, {"measurement": "28-day individual seizure frequency, post-baseline through Month 3 (Day 91), Mean (SD)", "setting": "[2]; PCDH19 n=11, MITT", "result": 7.29}, {"measurement": "28-day individual seizure frequency, post-baseline through Month 3 (Day 91), Median", "setting": "[2]; PCDH19 n=11, MITT", "result": 2.49}, {"measurement": "Percent change from baseline (at Day 91), 28-day individual seizure frequency, Mean (SD)", "setting": "[2]; PCDH19 n=11, MITT", "result": "−16.92", "unit": "%"}, {"measurement": "Percent change from baseline (at Day 91), 28-day individual seizure frequency, Median", "setting": "[2]; PCDH19 n=11, MITT", "result": "−38.48", "unit": "%"}, {"measurement": "Percent change from baseline (at Week 26), 28-day individual seizure frequency, Mean (SD)", "setting": "[2]; PCDH19 n=11, MITT", "result": "−23.95", "unit": "%"}, {"measurement": "Percent change from baseline (at Week 26), 28-day individual seizure frequency, Median", "setting": "[2]; PCDH19 n=11, MITT", "result": "−34.48", "unit": "%"}, {"measurement": "Median percent reduction in seizures", "setting": "[2]; children with PCDH19 disorder", "result": 34, "unit": "%"}, {"measurement": "28-day seizure free days % change at 3 months", "setting": "[2]; [3]", "result": "8% and 18% (2×) and 49% and −7% and −19% and −89% and 23% and 39% and 880% and 4%"}, {"measurement": "28-day seizure free days % change at 6 months", "setting": "[2]; [3]", "result": "7% and 27% and 14% and 32% and −3% and 890% and 5%"}, {"measurement": "28-day seizure rate % change at 3 months", "setting": "[2]; [3]", "result": "−33.29% and 31.36% and −7.37% and −4.38% and 106.67% and 353.25% and 1020.50% and −100.00% and −78.83% and −74.17% and −52.30%"}, {"measurement": "28-day seizure rate % change at 6 months", "setting": "[2]; [3]", "result": "−33.22% and −25.68% and −5.26% and −2.56% and 140.00% and early term (2×) and rash and sz returned and −73.47% and −53.85%"}, {"measurement": "Patients achieving greater than 50% seizure reduction that persisted for greater than 6 months", "setting": "[2]; [4]", "result": 4, "unit": "patients"}, {"measurement": "Patients with some degree of seizure reduction", "setting": "[2]; [4]", "result": "9 of 11"}]}
